Measured values as given in ChEMBL document CHEMBL1141941, “Biaryl diamides as potent melanin concentrating hormone receptor 1 antagonists” (Bioorg Med Chem Lett, 2005).

Assays:
[1] = target: Melanin-concentrating hormone receptor 2 (Homo sapiens, UniProt Q969V1); assay: Antagonist activity against human MCH2 receptor; format: functional
[2] = target: Melanin-concentrating hormone receptor 1 (Homo sapiens, UniProt Q99705); assay: Antagonist activity against human MCH1 receptor; format: functional
Sequence of Melanin-concentrating hormone receptor 1 (Q99705 whole entry): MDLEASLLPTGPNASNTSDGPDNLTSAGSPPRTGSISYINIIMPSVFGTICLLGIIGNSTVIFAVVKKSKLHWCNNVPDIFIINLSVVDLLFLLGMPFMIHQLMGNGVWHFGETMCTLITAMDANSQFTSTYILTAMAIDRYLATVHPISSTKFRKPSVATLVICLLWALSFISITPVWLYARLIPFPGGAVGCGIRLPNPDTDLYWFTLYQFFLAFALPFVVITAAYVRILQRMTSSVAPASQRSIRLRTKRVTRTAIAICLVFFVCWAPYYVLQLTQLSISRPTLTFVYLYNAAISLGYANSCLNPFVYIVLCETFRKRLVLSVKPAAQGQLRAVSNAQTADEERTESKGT

Sequence of Melanin-concentrating hormone receptor 2 (Q969V1 whole entry): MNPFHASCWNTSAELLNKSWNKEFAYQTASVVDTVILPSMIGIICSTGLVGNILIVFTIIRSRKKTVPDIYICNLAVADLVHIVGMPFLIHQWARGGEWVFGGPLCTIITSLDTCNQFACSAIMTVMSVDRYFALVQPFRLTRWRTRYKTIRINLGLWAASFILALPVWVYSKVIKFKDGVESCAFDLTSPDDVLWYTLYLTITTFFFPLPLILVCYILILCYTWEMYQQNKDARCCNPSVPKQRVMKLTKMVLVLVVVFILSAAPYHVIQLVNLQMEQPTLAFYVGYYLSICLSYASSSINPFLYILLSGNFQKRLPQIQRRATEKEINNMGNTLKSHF

SMILES	Ki [1] [nM]	Ki [2] [nM]
N#Cc1cccc(-c2ccc(CN(CC(=O)Nc3cc(Cl)cc(Cl)c3)C(=O)CN3CCCC3)cc2)c1	> 3000	–
N#Cc1cccc(-c2ccc(CN(CC(=O)Nc3cc(Cl)cc(Cl)c3)C(=O)CN3CC[C@H](O)C3)cc2)c1	> 3000	–
C[C@@H](c1ccc(-c2cccc(C#N)c2)cc1)N(CC(=O)Nc1cc(Cl)cc(Cl)c1)C(=O)CN1CC[C@H](O)C1	> 3000	16
C[C@H](c1ccc(-c2cccc(C#N)c2)cc1)N(CC(=O)Nc1cc(Cl)cc(Cl)c1)C(=O)CN1CC[C@H](O)C1	> 3000	31
N#Cc1cccc(-c2ccc(CN(CCCN3CCCC3)C(=O)Nc3ccc(F)c(C(F)(F)F)c3)cc2)c1	> 3000	70
N#Cc1cccc(-c2ccc(CN(CCN3CCCC3)C(=O)Nc3cc(Cl)cc(Cl)c3)cc2)c1	> 3000	151
N#Cc1cccc(-c2ccc(CN(CCCN3CCCC3)C(=O)Nc3ccc(F)c(Cl)c3)cc2)c1	> 3000	48
N#Cc1cccc(-c2ccc(CCN(CC(=O)Nc3cc(Cl)cc(Cl)c3)C(=O)CN3CCCC3)cc2)c1	> 3000	–
N#Cc1cccc(-c2ccc(CCN(CC(=O)Nc3cc(Cl)cc(Cl)c3)C(=O)CCN3CC[C@H](O)C3)cc2)c1	> 3000	–
N#Cc1cccc(-c2ccc(CN(CC(=O)Nc3cc(Cl)cc(Cl)c3)C(=O)CCN3CCCC3)cc2)c1	> 3000	–
CC(C)(c1ccc(-c2cccc(C#N)c2)cc1)N(CC(=O)Nc1cc(Cl)cc(Cl)c1)C(=O)CN1CCCC1	> 3000	131
N#Cc1cccc(-c2ccc(CCN(CC(=O)Nc3cc(Cl)cc(Cl)c3)C(=O)CN3CC[C@@H](O)C3)cc2)c1	> 3000	–
C[C@H](c1ccc(-c2cccc(C#N)c2)cc1)N(CC(=O)Nc1cc(Cl)cc(Cl)c1)C(=O)CCN1CC[C@H](O)C1	> 3000	23
C[C@@H](c1ccc(-c2cccc(C#N)c2)cc1)N(CC(=O)Nc1cc(Cl)cc(Cl)c1)C(=O)CCN1CC[C@H](O)C1	> 3000	18
N#Cc1cccc(-c2ccc(CN(CCN3CCCC3)C(=O)Nc3ccc(F)c(C(F)(F)F)c3)cc2)c1	> 3000	159
N#Cc1cccc(-c2ccc(CCN(CC(=O)Nc3cc(Cl)cc(Cl)c3)C(=O)CCN3CCCC3)cc2)c1	> 3000	–
N#Cc1cccc(-c2ccc(CCN(CC(=O)Nc3cc(Cl)cc(Cl)c3)C(=O)CCN3CC[C@@H](O)C3)cc2)c1	> 3000	–
C[C@H](c1ccc(-c2cccc(C#N)c2)cc1)N(CC(=O)Nc1cc(Cl)cc(Cl)c1)C(=O)CCCN1CC[C@H](O)C1	> 3000	76
N#Cc1cccc(-c2ccc(CCN(CC(=O)Nc3cc(Cl)cc(Cl)c3)C(=O)CN3CC[C@H](O)C3)cc2)c1	> 3000	–
CC(=O)N[C@@H]1CCN(CC(=O)N(CCc2ccc(-c3cccc(C#N)c3)cc2)CC(=O)Nc2cc(Cl)cc(Cl)c2)C1	> 3000	–
N#Cc1cccc(-c2ccc(CN(CCCN3CCCC3)C(=O)Nc3cc(Cl)cc(Cl)c3)cc2)c1	> 3000	48
N#Cc1cccc(-c2ccc(CN(CCN3CCCC3)C(=O)Nc3ccc(F)c(Cl)c3)cc2)c1	> 3000	287
N#Cc1cccc(-c2ccc(CN(CC(=O)Nc3cc(Cl)cc(Cl)c3)C(=O)CN3CC[C@@H](O)C3)cc2)c1	> 3000	–
